# Experimental data: patent US20230173074A1, “BIOCOMPATIBLE MATERIAL AND METHODS FOR MAKING AND USING THE SAME” (PLERYON THERAPEUTICS (SHENZHEN) LIMITED, priority 2020, published 2023)
# {3'dT} = capped with 3'-dT; {C6} = six-carbon (C6) cap; m = 2'-O-methyl; r = 2'-OH (RNA); f = 2'-fluoro
# Test: Release of aptamer from hydrogel (UV 260 nm)
# Details: PBS, 37° C.
# Text: Hydrogel was formed similar to Example 5. An aptamer similar to Macugen of the following sequence of nucleotides and functional groups: CfGmGmAAUfCfAmGmUfGmAmAmUfGmCfUfUfAmUfAmCfAmUfCfCfGm3′(SEQ ID NO:1), with 5′ end caped with 6 carbon (C6) and 3′ end caped with a 3′-dT-S′ and Cy3 fluorescent dye, was used as an aptamer example. Gm or Am and Cf or Uf represent 2-methoxy and 2-fluoro variants of their respective purines and pyrimidines, and C, A, U and G code for cytidylic, adenylic, uridylic and guanylic acids. Hydrogels were formed similar to Example 5, except that the solution before gel formation was added to the API in powder form. The gel was incubated at 37° C. for 2 days before release experiment. For the release experiment, a small portion of gel (between […]) were transferred by a 3 mL disposable plastic pipettes into a 10 ml glass vial at ambient temperature, and the mass was measured for the final release calculation. The glass vial was slowly filled up with 5 ml of PBS solutions to minimize the disturbing of gel. The release was performed at 37° C. in triplicate. At each predetermined time point, 0.5 h, 1 h, 2 h, and 4 h in this case, the sample was gently shake for 10 s and sit at ambient temperature for 10 min before 1000 μl of releasing buffer were taken for UV quantification at 260 nm. The experiments were performed in triplicate.
substance,measurement,setting,value
"aptamer: modified RNA aptamer similar to Macugen (SEQ ID NO:1), 5′ C6 cap, 3′-dT and Cy3 dye (CGGAAUCAGUGAAUGCUUAUACAUCCG; sugars from the 5' end fmmrrffmmfmmmfmfffmfmfmfffm, 5' {C6}, 3' {3'dT}, backbone not given here; Cy3 fluorescent dye attached, further chemistry not fully specified)",duration of release from hydrogel,hydrogel Ap1 (FIG. 21),about 4 hours
same,duration of release from hydrogel,hydrogel Ap2 (FIG. 22),about 4 hours
